One may read the IC50 as the concentration needed to halve the response being measured. Lower therefore signals greater potency in that assay. What is called inhibition is the change of the read-out against control, counted positive when it falls.

We go through 16 molecules from ChEMBL document CHEMBL3217461, “Synthesis of tetrazoleisoxazoline hybrids as a new class of tubulin polymerization inhibitors” (Medchemcomm, 2012).

Active and inactive are the calls of the source. No cut-off for these calls is given here.

Assay [1] has as its system A549. The experiment in a line: Cytotoxicity against human A549 cells after 48 hrs by MTT assay. The class given is functional, cell-based. To be noted: A549, 48 h. A general note: Tetrazolium assays rely on reduction of a dye to a coloured formazan, in cell work by metabolically active cells.
For a further assay, the system named is MDA-MB-231. The assay can be described thus: Cytotoxicity against human MDA-MB-231 cells after 48 hrs by MTT assay. The class given is functional, cell-based. Particulars: MDA-MB-231, 48 h.
The test system of assay [2] is A549. The assay can be described thus: Cell cycle arrest in human A549 cells assessed as accumulation at G0 phase at 2 uM after 24 hrs using propidium iodide staining by flow cytometer analysis (reference value: 0.56%). The class given is functional. (In flow cytometry, cells or beads pass a laser one at a time.)
Assay [3] deals with A549. The assay can be described thus: Cell cycle arrest in human A549 cells assessed as accumulation at G1 phase at 2 uM after 24 hrs using propidium iodide staining by flow cytometer analysis (reference value: 80.03%). Type of assay: functional.
For assay [4], the system named is A549. The assay can be described thus: Cell cycle arrest in human A549 cells assessed as accumulation at S phase at 2 uM after 24 hrs using propidium iodide staining by flow cytometer analysis (reference value: 5.43%). Type of assay: functional.
The test system of assay [5] is A549. The assay can be described thus: Cell cycle arrest in human A549 cells assessed as accumulation at G2/M phase at 2 uM after 24 hrs using propidium iodide staining by flow cytometer analysis (reference value: 13.98%). Type of assay: functional.
Assay [6] concerns the target T1, Tubulin (Homo sapiens) (UniProt P68371+Q9H4B7+P0DPH7+P68366+Q13509+Q71U36+P04350+Q3ZCM7+P07437+P68363+Q9BQE3+Q6PEY2+Q13885+Q9BVA1+Q9BUF5). The assay can be described thus: Inhibition of tubulin polymerization in human A549 cells assessed as microtubule network at 2 uM after 24 hrs by immunofluorescence microscopy analysis. Type of assay: cell-based.
Assay [7] addresses T1, Tubulin (Homo sapiens). The experiment in a line: Inhibition of gamma-tubulin in human A549 cells assessed as decrease in protein organization pattern at 2 uM after 24 hrs by immunofluorescence analysis. Type of assay: cell-based.
The target of assay [8] is T1, Tubulin (Homo sapiens). The experiment in a line: Inhibition of tubulin (unknown origin) at 2 uM after 30 to 60 mins by HTS assay. Type of assay: protein-complex assay.
A further assay has as its target Tubulin (Bos taurus) (UniProt Q6B856+Q862L2+Q862F3). The assay can be described thus: Displacement of [3H]-colchicine from purified bovine brain tubulin at 5 uM after 1 hr by scintillation proximity assay. (In general: In a radioligand displacement assay an active substance lowers the binding of a labelled ligand.)
Assay [9] deals with A549. The assay can be described thus: Induction of apoptosis in human A549 cells assessed as increase of caspase-3 expression at 2 uM after 2 hrs by Western blot analysis. The class given is functional, cell-based.

For the molecule `COc1cc(-n2nnnc2-c2ccc(OCC3CC(c4ccc(OC)c(OC)c4OC)=NO3)c(N)c2)cc(OC)c1OC` (stereo unspecified), the values for the IC50 in the assay on A549 [1] and in the assay with MDA-MB-231 were 2.03 µM and 3.54 µM, respectively. For the same molecule, the Activity in the assay with A549 [2] is reported as 1.08%; with A549 [3] it was 73.18%; with A549 [4], 5.4%; with A549 [5], 20.34%.
`COc1ccc(-c2nnnn2-c2cc(OC)c(OC)c(OC)c2)cc1N`: the IC50 came out at 2.63 µM in the assay with A549 [1] and 3.17 µM in the assay with MDA-MB-231. Moreover, the Activity with A549 [2] turned out to be 1.05%; in the assay with A549 [3], 72.31%; with A549 [4] it was 3.47%; with A549 [5] it was 23.1%.
As for `COc1ccc(C2=NOC(COc3ccc(-c4nnnn4-c4cc(OC)c(OC)c(OC)c4)cc3N)C2)cc1OC` (stereo unspecified), the results for the IC50 in the assay on A549 [1] and in the assay with MDA-MB-231 were 2.52 µM and 3.57 µM, respectively. Besides, the Activity was 1.44% with A549 [2], 73.08% in the assay with A549 [3], 5.31% in the assay on A549 [4] and 20.18% in the assay on A549 [5].
`COc1ccc(C2=NOC(COc3ccc(-c4nnnn4-c4cc(OC)c(OC)c(OC)c4)cc3N)C2)cc1N` (stereo unspecified): the IC50 in the assay on A549 [1] came out at 2.08 µM; in the assay on MDA-MB-231 it was 3 µM. For the same molecule, the Activity with A549 [2] was 1.68%; with A549 [3] it was 75.87%; in the assay on A549 [4] it was 5.42%; in the assay on A549 [5], 17.03%.
On to `COc1cc(-n2nnnc2-c2ccc(OCC3CC(c4ccc(C(F)(F)F)cc4)=NO3)c(N)c2)cc(OC)c1OC` (stereo unspecified), for which the IC50 in the assay with A549 [1] worked out at 1.22 µM; in the assay with MDA-MB-231, 1.75 µM. Further, the Activity was 7.14% in the assay with A549 [2], 43.08% in the assay with A549 [3], 4.17% in the assay with A549 [4] and 45.61% in the assay with A549 [5].
As to `COc1ccc(F)c(C2=NOC(COc3ccc(-c4nnnn4-c4cc(OC)c(OC)c(OC)c4)cc3N)C2)c1` (stereo unspecified), the IC50 in the assay with A549 [1] was found to be 1.51 µM; in the assay on MDA-MB-231, 2.83 µM. Besides, the Activity turned out to be 2.55% in the assay on A549 [2], 10.23% with A549 [3], 5.93% with A549 [4] and 81.29% in the assay with A549 [5]. Also, the inhibition entry on Tubulin (Homo sapiens) [6], at Tubulin (Homo sapiens) [7] and on Tubulin (Homo sapiens) [8] was “Active” throughout. For the same molecule, on Tubulin (Bos taurus), the inhibition was found to be 90%. The result in the assay with A549 [9] was Active.
On to `COc1ccc(OC)c(C2=NOC(COc3ccc(-c4nnnn4-c4cc(OC)c(OC)c(OC)c4)cc3N)C2)c1` (stereo unspecified), for which the IC50 with A549 [1] is 1.93 µM; with MDA-MB-231 it was 3.5 µM. Also, the Activity came to 0.95% in the assay on A549 [2], 75.39% in the assay on A549 [3], 5.02% in the assay with A549 [4] and 18.63% in the assay with A549 [5].
As to `COc1ccc(C2=NOC(COc3ccc(-c4nnnn4-c4cc(OC)c(OC)c(OC)c4)cc3N)C2)cc1O` (stereo unspecified), the IC50 with A549 [1] was determined as 2.13 µM; in the assay with MDA-MB-231, 3.38 µM. The Activity was 2.05% in the assay on A549 [2], 69.87% with A549 [3], 6.27% with A549 [4] and 21.81% in the assay with A549 [5].
With `COc1cc(C2=NOC(COc3ccc(-c4nnnn4-c4cc(OC)c(OC)c(OC)c4)cc3N)C2)cc(OC)c1OC` (stereo unspecified), the IC50 in the assay on A549 [1] was 2.06 µM; in the assay with MDA-MB-231, 3.23 µM. The Activity came out at 1.74% in the assay on A549 [2], 72.62% with A549 [3], 4.92% in the assay with A549 [4] and 20.72% in the assay with A549 [5].
As to `CC(=O)O[C@H]1C(=O)[C@@]2(C)[C@H]([C@H](OC(=O)c3ccccc3)[C@]3(O)C[C@H](OC(=O)[C@H](O)[C@@H](NC(=O)c4ccccc4)c4ccccc4)C(C)=C1C3(C)C)[C@]1(OC(C)=O)CO[C@@H]1C[C@@H]2O`, the inhibition at Tubulin (Bos taurus) was determined as 20%.
For `COc1ccc(/C=C\c2cc(OC)c(OC)c(OC)c2)cc1O` [COMBRETASTATIN A4], the IC50 was found to be 0.55 µM in the assay with A549 [1] and 0.1 µM with MDA-MB-231. Further, the Activity with A549 [2] is given as 1.79%; in the assay on A549 [3], 7.47%; in the assay with A549 [4], 6.03%; with A549 [5], 84.71%.
Turning to `COc1cc(C2=NOC(COc3ccc(-c4nnnn4-c4cc(OC)c(OC)c(OC)c4)cc3N)C2)ccc1O` (stereo unspecified), the IC50 with A549 [1] stood at 2.01 µM; in the assay with MDA-MB-231 it was 3.62 µM. The Activity in the assay with A549 [2] is listed as 1.65%; with A549 [3], 70.71%; in the assay on A549 [4], 6.41%; with A549 [5] it was 21.18%.
In the case of `COc1cc(C2=NOC(c3cc(OC)c(OC)c(OC)c3)C2)ccc1O` (stereo unspecified), the IC50 in the assay with A549 [1] stood at 2.6 µM; with MDA-MB-231 it was 3.6 µM. Further, the Activity is 1.42% in the assay with A549 [2], 65.98% in the assay on A549 [3], 4.25% in the assay with A549 [4] and 27.86% with A549 [5].
As to `COc1cc(-n2nnnc2-c2ccc(OCC3CC(c4cccc(Cl)c4)=NO3)c(N)c2)cc(OC)c1OC` (stereo unspecified), the IC50 with A549 [1] came out at 1.34 µM; with MDA-MB-231, 2.18 µM. The Activity with A549 [2] is listed as 6.83%; with A549 [3], 49.34%; in the assay with A549 [4], 5.53%; with A549 [5], 38.3%.
For `COc1ccc(C2=NOC(COc3ccc(-c4nnnn4-c4cc(OC)c(OC)c(OC)c4)cc3N)C2)cc1[N+](=O)[O-]` (stereo unspecified), the IC50 with A549 [1] is 2.22 µM; in the assay on MDA-MB-231, 3.56 µM. Also, the Activity was 1.84% in the assay on A549 [2], 74.79% in the assay with A549 [3], 5.29% with A549 [4] and 18.08% in the assay with A549 [5].
Consider `COc1cc(-n2nnnc2-c2ccc(OCC3CC(c4ccccc4F)=NO3)c(N)c2)cc(OC)c1OC` (stereo unspecified), for which the IC50 is 1.49 µM in the assay on A549 [1] and 2.4 µM in the assay with MDA-MB-231. In addition, the Activity came out at 3.19% in the assay with A549 [2], 11.34% in the assay on A549 [3], 6.04% in the assay with A549 [4] and 79.42% with A549 [5]. Further, the inhibition result on Tubulin (Homo sapiens) [6], at Tubulin (Homo sapiens) [7] and at Tubulin (Homo sapiens) [8] was “Active” each time. Besides, on Tubulin (Bos taurus), the inhibition is 92%. Further, the result in the assay on A549 [9] was Active.
